Assay results from patent US20120251492A1, “TRITERPENE DERIVATIVE AND AGENT FOR PREVENTING OR TREATING CHRONIC HEPATITIS C” (MEIJI SEIKA PHARMA CO., LTD., priority 2009, published 2012).
Where two headings read alike, the source gives them in different places.

Columns and labels:
[1] = test system: HCV (Con1 Strain) replicon; assay: microbe, parasite or virus in culture; assay type: cell-based, hepatitis C virus (HCV) Con1 strain, in Huh7 cells; conditions: read-out: IC50 Value (50% growth inhibitory concentration)
Text: The compounds represented by the formula (I) were subjected to an HCV replicon assay and a cytotoxicity test.
In order to quantify the degree of HCV virus proliferation, a material was constructed by introducing a luciferase gene as a reporter gene into the genomic gene sequence of HCV Cont strain. The luciferase gene was introduced in the form of fusion with a neomycin-resistant gene, immediately after the IRES (Internal Ribosome Entry Site) of the HCV gene according to the method of Krieger et al., (J. Virol. 75: 4614 (2001)). The constructed RNA was introduced into Huh7 cells by electroporation, and isolated as G418 resistant clone.
The HCV replicon cells comprising the luciferase gene and the neomycin resistance gene were suspended in a culture liquid [D-MEM (SIGMA, D6046) containing 10% of fetal bovine serum (EQUITECH-BIO, INC.)], and seeded onto 96-well plates at 5000 to 8100 cells/well. Test compounds were added at various concentrations, and the cells were cultured under 5% CO2 at 37° C. for 3 days. For adding the test compounds, solutions of the test compounds dissolved in dimethyl sulfoxide (DMSO) were used, and diluted with the culture liquid to appropriate concentrations before use. The experiment was conducted with the final concentrations of DMSO used for dissolving the test compounds being 0.4% during the culturing of the replicon cells. To wells to which no test compound was added, DMSO was added with a final concentration of 0.4%.
Assay plates were prepared for two systems; one of the assays was conducted on a white plate, and the other was conducted on a clear plate. After the culturing for treatments with the test compounds was completed, the white plate was subjected to chemiluminescence measurement by using a Steady-Glo Luciferase Assay System (Promega, E2520) in order to detect effects on HCV replicon proliferation. A EnVision multilabel counter (PerkinElmer 2102) was used for the chemiluminescence measurement. While the value obtained when no test compound was added was taken as 0% inhibition, the inhibitory ratios by the treatments with the agents were calculated.
Regarding the HCV replicon assay, IC50s (50% growth inhibitory concentrations) of the agents were calculated, with the value obtained when no agent was added being taken as 0% inhibition.

[2] = Pharmacokinetics study in mice; assay type: in vivo; conditions: Balb/c mice, male, oral 20 mg/kg suspended in olive oil, LC-MS/MS; for AUC / Cmax / half-life: mouse, plasma; for AUC: read-out: AUC (area under the plasma drug concentration-time curve); for Cmax: read-out: Cmax (maximum plasma concentration); for half-life: read-out: t1/2 (plasma half-life) (converted)
Description: Balb/c mice (male, 7 to 8-week old) were used (3 or more mice per group). Each test compound suspended in olive oil was orally administered at 20 mg/kg, and blood was collected from the jugular vein after 2, 6, and 24 hours, or after 2, 4, 6, 8, 24, and 48 hours. The plasma drug concentration was measured by using a liquid chromatograph/mass spectrometry/mass spectrometry (LC-MS/MS). In addition, pharmacokinetics parameters were obtained from change in the obtained plasma concentration.

[3] = Hepatitis C virus, Huh-7, 72 h, HCV replicon cells (Huh7) with luciferase gene, cultured 3 days with test compound, 0.4% DMSO

SMILES	IC50 [1, 3] [µM]	AUC [2] [ng·h/mL]	Cmax [2] [ng/mL]	half-life [2] [h]	further results
CC1(C)C[C@@H](OCc2ccc(C(=O)O)cc2)[C@]2(C)CC[C@]3(C)C(=CCC4[C@@]5(C)CC[C@H](O)[C@](C)(CO)C5CC[C@]43C)[C@@H]2C1 (stereo partly drawn) [Compound 1, 22β-(4-carboxybenzyloxy)olean-12-ene-3β,24-diol]	13.5	–	–	–	–
C#CCO[C@@H]1CC(C)(C)C[C@H]2C3=CCC4[C@@]5(C)CC[C@H](O)[C@](C)(CO)C5CC[C@@]4(C)[C@]3(C)CC[C@@]12C (stereo partly drawn) [Compound 2, 22β-(2-propynyloxy)olean-12-ene-3β,24-diol]	5.73	44700 ± 16300	2800 ± 1000	10 ± 1.2	–
CC1(C)C[C@@H](OCc2ccc(CO)cc2)[C@]2(C)CC[C@]3(C)C(=CCC4[C@@]5(C)CC[C@H](O)[C@](C)(CO)C5CC[C@]43C)[C@@H]2C1 (stereo partly drawn) [Compound 3, 22β-(4-hydroxymethylbenzyloxy)olean-12-ene-3β,24-diol]	–	–	–	–	IC50 ([1]; Hepatitis C virus, Huh-7, 72 h): 1.56 µM
CC1(C)C[C@@H](OCc2ccc(C=O)cc2)[C@]2(C)CC[C@]3(C)C(=CCC4[C@@]5(C)CC[C@H](O)[C@](C)(CO)C5CC[C@]43C)[C@@H]2C1 (stereo partly drawn) [Compound 4, 22β-(4-formylbenzyloxy)olean-12-ene-3β,24-diol]	3.59	–	–	–	–
CC1(C)C[C@@H](OCCCO)[C@]2(C)CC[C@]3(C)C(=CCC4[C@@]5(C)CC[C@H](O)[C@](C)(CO)C5CC[C@]43C)[C@@H]2C1 (stereo partly drawn) [Compound 7, 22β-(3-hydroxypropoxy)olean-12-ene-3β,24-diol]	5.32	–	–	–	–
CC1(C)C[C@@H](OCCCOc2ccc(C(=O)O)cc2)[C@]2(C)CC[C@]3(C)C(=CCC4[C@@]5(C)CC[C@H](O)[C@](C)(CO)C5CC[C@]43C)[C@@H]2C1 (stereo partly drawn) [Compound 8, 22β-(3-(4-carboxyphenyl)oxypropoxy)olean-12-ene-3β,24-diol]	6.99	–	–	–	–
CC1(C)C[C@@H](OCc2ccc(CN3CCOCC3)cc2)[C@]2(C)CC[C@]3(C)C(=CCC4[C@@]5(C)CC[C@H](O)[C@](C)(CO)C5CC[C@]43C)[C@@H]2C1 (stereo partly drawn) [Compound 9, 22β-(4-(4-morpholylmethyl)benzyloxy)olean-12-ene-3β,24-diol]	9.13	–	–	–	–
CN(C)Cc1ccc(CO[C@@H]2CC(C)(C)C[C@H]3C4=CCC5[C@@]6(C)CC[C@H](O)[C@](C)(CO)C6CC[C@@]5(C)[C@]4(C)CC[C@@]23C)cc1 (stereo partly drawn) [Compound 10, 22β-(4-dimethylaminomethylbenzyloxy)olean-12-ene-3β,24-diol]	3.68	–	–	–	–
CC1(C)C[C@@H](OCc2ccc(CNc3ccccc3)cc2)[C@]2(C)CC[C@]3(C)C(=CCC4[C@@]5(C)CC[C@H](O)[C@](C)(CO)C5CC[C@]43C)[C@@H]2C1 (stereo partly drawn) [Compound 11, 22β-(4-phenylaminomethylbenzyloxy)olean-12-ene-3β,24-diol]	13	–	–	–	–
CC1(C)C[C@@H](OCc2ccccc2)[C@]2(C)CC[C@]3(C)C(=CCC4[C@@]5(C)CC[C@H](O)[C@](C)(C(=O)O)C5CC[C@]43C)[C@@H]2C1 (stereo partly drawn) [Compound 12, 22β-benzyloxyolean-12-ene-3β-hydroxy-24-oic acid]	5.54	74700 ± 11000	4800 ± 1100	11.9 ± 2.7	–
C=CCO[C@@H]1CC(C)(C)C[C@H]2C3=CCC4[C@@]5(C)CC[C@H](O)[C@](C)(C(=O)O)C5CC[C@@]4(C)[C@]3(C)CC[C@@]12C (stereo partly drawn) [Compound 13, 22β-allyloxyolean-12-ene-3β-hydroxy-24-oic acid]	7.05	74900 ± 16300	4800 ± 1500	13 ± 5.5	–
CO[C@@H]1CC(C)(C)CC2C3=CCC4[C@@]5(C)CC[C@H](O)[C@](C)(C(=O)O)C5CC[C@@]4(C)[C@]3(C)CC[C@]21C (stereo partly drawn) [Compound 14, 3β-hydroxy-22β-methoxyolean-12-en-24-oic acid]	5.57	81100 ± 18300	4800 ± 1100	13.9 ± 1	–
CO[C@@H]1CC(C)(C)C[C@H]2C3=CC[C@@H]4[C@@]5(C)CC[C@H](O)[C@](C)(CO)[C@@H]5CC[C@@]4(C)[C@]3(C)CC[C@@]12C [Compound 17, 22β-methoxyolean-12-ene-3β,24-diol, reference compound]	–	–	–	–	IC50 ([1]; HCV replicon cells (Huh7) with luciferase gene, cultured 3 days with test compound, 0.4% DMSO): > 20 µM; AUC (area under the plasma drug concentration-time curve) [2]: 35600 ± 9700 ng·h/mL; Cmax (maximum plasma concentration) [2]: 2600 ± 700 ng/mL; t1/2 (plasma half-life) [2]: 7.4 ± 0.4 h
